The subject of the assay is activated CD4+ T cells from MA10-infected HLA-DRB1*0101 Ifnar1^−/− mice. In kind it is cell-based.

On to “GTWLTYTGAIKLDDK (misc_feature - Nucleoprotein; Severe acute respiratory syndrome-related coronavirus) [N328-342]”, for which the “expansion of multifunctional IFNγ+/TNF+ CD4+ T cells” value (from here on “expansion”) was “capable of expanding”.

In the case of LNTLVKQLSSNFGAI [S959-973], the “frequency of IFNγ-producing activated CD4+ T cells compared with unstimulated control cells” value is recorded as “increase was significant”.

Take “RWYFYYLGTGPEAGL (misc_feature - Nucleoprotein; Severe acute respiratory syndrome-related coronavirus) [N107-121]”: the “frequency of IFNγ-producing activated CD4+ T cells compared with unstimulated control cells” value was “increase was significant”.

Consider TSNFRVQPTESIVRF [S315-329], for which the “expansion” value is recorded as “capable of expanding”.

As for VLSFELLHAPATVCG [S512-526], the “expansion” value is reported as “capable of expanding”.

The values are drawn from US20240400620A1, “Compositions Containing Coronavirus Proteins and Epitopes” (priority 2021, published 2024).
